# Experimental data from ChEMBL document CHEMBL3817808, “Enlarging the chemical space of anti-leishmanials: a structureactivity relationship study of peptoids against Leishmania mexicana, a causative agent of cutaneous leishmaniasis” (Medchemcomm, 2016).
# How the values were obtained:
# [1] = Cytotoxicity against mouse RAW264.7 cells measured after 24 hrs by alamarBlue staining based fluorescence analysis; type: cell-based; settings: read-out: ED50
# Leishmania mexicana [2] = assay: Antileishmanial activity against Leishmania mexicana MNYC/BZ/62/M379 promastigotes assessed as parasite viability measured after 1 hr by alamarBlue staining based fluorescence analysis; type: functional; settings: MNYC/BZ/62/M379, 1 h, read-out: ED50 (the source's name)
# Leishmania mexicana [3] = assay: Antileishmanial activity against axenic amastigote form of Leishmania mexicana MNYC/BZ/62/M379 assessed as parasite viability measured after 1 hr by alamarBlue staining based fluorescence analysis; type: functional; settings: MNYC/BZ/62/M379, 1 h, read-out: ED50 (the source's name)
# Leishmania mexicana [4] = assay: Antileishmanial activity against Leishmania mexicana MNYC/BZ/62/M379 amastigotes infected in mouse RAW264.7 cells assessed as parasite viability measured after 24 hrs by alamarBlue staining based fluorescence analysis; type: functional
structure (smiles),measurement,setting,value
C[C@@H]1[C@H](O)[C@@H](C)/C=C/C=C/C=C/C=C/C=C/C=C/C=C/[C@H](O[C@@H]2O[C@H](C)[C@@H](O)[C@H](N)[C@@H]2O)C[C@@H]2O[C@](O)(C[C@@H](O)C[C@@H](O)[C@H](O)CC[C@@H](O)C[C@@H](O)CC(=O)O[C@H]1C)C[C@H](O)[C@H]2C(=O)O [AMPHOTERICIN B],CC50 at 24 h,[1],> 5000 nM
same,EC50,Leishmania mexicana [2],< 2000 nM
same,EC50,Leishmania mexicana [3],< 2000 nM
same,ED50,Leishmania mexicana [4],195 nM
